From patent US11109593B2, “Isoxazolin-5-one derivative and herbicide containing same as active ingredient” (HOKKO CHEMICAL INDUSTRY CO., LTD., priority 2017, dated 2021)

Key:
Assay type in all cases: in vivo
[1] = system: broad leaf weeds (Lindernia pyxidaria and Monochoria vaginalis); assay: Test Example 2: herbicidal effect test by treatment during growing period in paddy rice cultivation (seven days after seeding); settings: 120 g/10a active ingredient, assessed 14 days after treatment, dry weight vs untreated area; for pest or weed control at 1200 g/ha: 336 h
Procedure, shortened: (§1)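 Sow 30 seeds per species (0–1 cm) into puddled, fertilized paddy soil; keep flooded ~3 cm in greenhouse. Day 7 after seeding: drop water-diluted emulsion, 120 g a.i./10 ares. Harvest 14 d post-treatment; compare dry weight with untreated pots (duplicate).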

Echinochloa crus-galli [2] = assay: as above; settings: 120 g/10a active ingredient, assessed 14 days after treatment, dry weight vs untreated area
Procedure, shortened: as §1

Scirpus juncoides [3] = assay: as above; settings: 120 g/10a active ingredient, assessed 14 days after treatment, dry weight vs untreated area
Procedure, shortened: as §1

[4] = system: broad leaf weeds (Lindernia pyxidaria and Monochoria vaginalis); assay: Test Example 1: herbicidal effect test by treatment of rice paddy soil (immediately after seeding); settings: 120 g/10a active ingredient, dry weight vs untreated area, 14 days after treatment; for pest or weed control at 1200 g/ha: 336 h
Procedure, shortened: (§2)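 Flooded paddy pot test in a glass greenhouse: emulsion diluted in water, dropped at 120 g a.i. per 10 ares just after sowing, water depth kept about 3 cm. Dry-weight reduction relative to untreated plants is scored at 14 days.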

Echinochloa crus-galli [5] = assay: as above; settings: 120 g/10a active ingredient, dry weight vs untreated area, 14 days after treatment
Procedure, shortened: as §2

Scirpus juncoides [6] = assay: as above; settings: 120 g/10a active ingredient, dry weight vs untreated area, 14 days after treatment
Procedure, shortened: as §2

Amaranthus viridis [7] = assay: Test Example 4: herbicidal effect test by treatment of leave and stem in dry field farming (seven days after seeding); settings: 120 g/10a active ingredient, emulsion sprayed seven days after seeding, evaluated 14 days after treatment
Procedure, shortened: (§3)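 Weeds were seeded at 20 seeds per species into the top 1 cm of alluvial upland soil in pots, then sprayed 7 days after seeding with water-diluted emulsifiable concentrate at 100 L/10 a, giving 120 g active ingredient/10 a. Duplicate pots; herbicidal rate (%) was 14 days post-treatment, from dry weight versus untreated.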

southern crabgrass [8] = assay: as above; settings: 120 g/10a active ingredient, emulsion sprayed seven days after seeding, evaluated 14 days after treatment
Procedure, shortened: as §3

Chenopodium album [9] = assay: as above; settings: 120 g/10a active ingredient, emulsion sprayed seven days after seeding, evaluated 14 days after treatment
Procedure, shortened: as §3

Echinochloa crus-galli [10] = assay: as above; settings: 120 g/10a active ingredient, emulsion sprayed seven days after seeding, evaluated 14 days after treatment
Procedure, shortened: as §3

Amaranthus viridis [11] = assay: Test Example 3: herbicidal effect test by treatment of dry field farming soil (one day after seeding); settings: 120 g/10a active ingredient, evaluated 14 days after treatment
Procedure, shortened: (§4)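 Weeds were seeded into the upper soil layer of alluvial field soil and, one day afterwards, the soil surface was sprayed with water-diluted emulsion delivering 120 g active ingredient per 10 ares. Mean plant dry weight relative to untreated pots after 14 days gave the herbicidal rate, tested in duplicate.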

southern crabgrass [12] = assay: as above; settings: 120 g/10a active ingredient, evaluated 14 days after treatment
Procedure, shortened: as §4

Chenopodium album [13] = assay: as above; settings: 120 g/10a active ingredient, evaluated 14 days after treatment
Procedure, shortened: as §4

Echinochloa crus-galli [14] = assay: as above; settings: 120 g/10a active ingredient, evaluated 14 days after treatment
Procedure, shortened: as §4

SMILES	Herbicidal rate (%) Lindernia pyxidaria ([1]; Lindernia pyxidaria) [%]	Herbicidal rate (%) Monochoria vaginalis ([1]; Monochoria vaginalis) [%]	Herbicidal rate (%) Echinochloa crus-galli (Echinochloa crus-galli [2]) [%]	Herbicidal rate (%) Scirpus juncoides (Scirpus juncoides [3]) [%]	Herbicidal rate (%) Lindernia pyxidaria ([4]; Lindernia pyxidaria) [%]	Herbicidal rate (%) Monochoria vaginalis ([4]; Monochoria vaginalis) [%]	Herbicidal rate (%) Echinochloa crus-galli (Echinochloa crus-galli [5]) [%]	Herbicidal rate (%) Scirpus juncoides (Scirpus juncoides [6]) [%]	herbicidal effect (herbicidal rate), Amaranthus viridis (Amaranthus viridis [7]) [%]	herbicidal effect (herbicidal rate), southern crabgrass (southern crabgrass [8]) [%]	herbicidal effect (herbicidal rate), Chenopodium album (Chenopodium album [9]) [%]	herbicidal effect (herbicidal rate), Echinochloa crus-galli (Echinochloa crus-galli [10]) [%]	herbicidal rate, Amaranthus viridis (Amaranthus viridis [11]) [%]	herbicidal rate, southern crabgrass (southern crabgrass [12]) [%]	herbicidal rate, Chenopodium album (Chenopodium album [13]) [%]	herbicidal rate, Echinochloa crus-galli (Echinochloa crus-galli [14]) [%]	also measured
CCC(C)n1oc(=O)c(Cc2ccccc2N(S(=O)(=O)C(F)(F)F)S(=O)(=O)C(F)(F)F)c1C (stereo not drawn) [Compound 1-964, 1,1,1-trifluoro-N-[2-[(3-methyl-5-oxo-2-sec-butyl-isoxazol-4-yl)methyl]phenyl]-N-(trifluoromethylsulfonyl)methanesulfonamide]	–	–	–	–	–	–	–	–	–	–	–	–	–	–	–	–	pest or weed control at 1200 g/ha ([1]; Lindernia pyxidaria, read-out: herbicidal rate (%) Lindernia pyxidaria): 90%; pest or weed control at 1200 g/ha ([1]; Monochoria vaginalis, read-out: herbicidal rate (%) Monochoria vaginalis): 90%; pest or weed control at 1200 g/ha (Echinochloa crus-galli [2]; Echinochloa crus-galli, 336 h, read-out: herbicidal rate (%) Echinochloa crus-galli): 90%; pest or weed control at 1200 g/ha (Scirpus juncoides [3]; Schoenoplectiella juncoides, 336 h, read-out: herbicidal rate (%) Scirpus juncoides): 90%; pest or weed control at 1200 g/ha ([4]; Monochoria vaginalis, read-out: Herbicidal rate (%) Monochoria vaginalis): 100%; pest or weed control at 1200 g/ha ([4]; in Lindernia, Lindernia pyxidaria, read-out: Herbicidal rate (%) Lindernia pyxidaria): 100%; pest or weed control at 1200 g/ha (Echinochloa crus-galli [5]; in Echinochloa crus-galli, 336 h, read-out: Herbicidal rate (%) Echinochloa crus-galli): 90%; pest or weed control at 1200 g/ha (Scirpus juncoides [6]; in Schoenoplectiella juncoides, 336 h, read-out: Herbicidal rate (%) Scirpus juncoides): 90%; pest or weed control at 1200 g/ha (Amaranthus viridis [7]; Amaranthus viridis, 336 h, read-out: herbicidal effect (herbicidal rate), Amaranthus viridis): 40%; pest or weed control at 1200 g/ha (southern crabgrass [8]; Digitaria ciliaris, 336 h, read-out: herbicidal effect (herbicidal rate), southern crabgrass): 60%; pest or weed control at 1200 g/ha (Chenopodium album [9]; Chenopodium album, 336 h, read-out: herbicidal effect (herbicidal rate), Chenopodium album): 0%; pest or weed control at 1200 g/ha (Echinochloa crus-galli [10]; Echinochloa crus-galli, 336 h, read-out: herbicidal effect (herbicidal rate), Echinochloa crus-galli): 90%; pest or weed control at 1200 g/ha (Amaranthus viridis [11]; Amaranthus viridis, 336 h, read-out: herbicidal rate, Amaranthus viridis): 90%; pest or weed control at 1200 g/ha (southern crabgrass [12]; Digitaria ciliaris, 336 h, read-out: herbicidal rate, southern crabgrass): 90%; pest or weed control at 1200 g/ha (Chenopodium album [13]; Chenopodium album, 336 h, read-out: herbicidal rate, Chenopodium album): 90%; pest or weed control at 1200 g/ha (Echinochloa crus-galli [14]; Echinochloa crus-galli, 336 h, read-out: herbicidal rate, Echinochloa crus-galli): 90%
C=CC(C)n1oc(=O)c(Cc2ccccc2N(S(=O)(=O)C(F)(F)F)S(=O)(=O)C(F)(F)F)c1C (stereo not drawn) [Compound 1-986]	40	70	90	90	90	80	90	90	60	90	40	90	60	80	60	100	–
CCOC(=O)N(c1ccccc1Cc1c(C)n(C(C)COC)oc1=O)S(=O)(=O)C(F)(F)F (stereo not drawn) [Compound 1-615]	90	90	90	90	90	90	90	90	40	90	40	90	90	90	90	90	–
Cc1c(Cc2ccccc2NS(=O)(=O)C(F)(F)F)c(=O)on1CC1CCCCC1 [Compound 1-146]	70	90	100	90	100	100	100	100	50	40	40	80	90	100	90	100	–
CCC(C)n1oc(=O)c(Cc2ccccc2N(C(=O)c2ccccc2)S(=O)(=O)C(F)(F)F)c1C (stereo not drawn) [Compound 1-474]	90	90	90	90	90	90	90	90	40	90	40	90	90	90	90	90	–
CCCC(C)n1oc(=O)c(Cc2ccccc2N(C(=O)C2CC2)S(=O)(=O)C(F)(F)F)c1C (stereo not drawn) [Compound 1-408]	70	60	90	90	80	80	100	90	40	90	70	90	80	100	60	100	–
